Active and inactive are the calls of the source.
Columns and labels:
[1] = target: T1, Replicative DNA helicase DnaB (Mycobacterium tuberculosis, UniProt P9WMR3); assay: DnaB intein splicing inhibitors, dose response, biochemical, cell-free fluorescence (AID 449749); assay type: functional
T1 sequence (P9WMR3 whole entry): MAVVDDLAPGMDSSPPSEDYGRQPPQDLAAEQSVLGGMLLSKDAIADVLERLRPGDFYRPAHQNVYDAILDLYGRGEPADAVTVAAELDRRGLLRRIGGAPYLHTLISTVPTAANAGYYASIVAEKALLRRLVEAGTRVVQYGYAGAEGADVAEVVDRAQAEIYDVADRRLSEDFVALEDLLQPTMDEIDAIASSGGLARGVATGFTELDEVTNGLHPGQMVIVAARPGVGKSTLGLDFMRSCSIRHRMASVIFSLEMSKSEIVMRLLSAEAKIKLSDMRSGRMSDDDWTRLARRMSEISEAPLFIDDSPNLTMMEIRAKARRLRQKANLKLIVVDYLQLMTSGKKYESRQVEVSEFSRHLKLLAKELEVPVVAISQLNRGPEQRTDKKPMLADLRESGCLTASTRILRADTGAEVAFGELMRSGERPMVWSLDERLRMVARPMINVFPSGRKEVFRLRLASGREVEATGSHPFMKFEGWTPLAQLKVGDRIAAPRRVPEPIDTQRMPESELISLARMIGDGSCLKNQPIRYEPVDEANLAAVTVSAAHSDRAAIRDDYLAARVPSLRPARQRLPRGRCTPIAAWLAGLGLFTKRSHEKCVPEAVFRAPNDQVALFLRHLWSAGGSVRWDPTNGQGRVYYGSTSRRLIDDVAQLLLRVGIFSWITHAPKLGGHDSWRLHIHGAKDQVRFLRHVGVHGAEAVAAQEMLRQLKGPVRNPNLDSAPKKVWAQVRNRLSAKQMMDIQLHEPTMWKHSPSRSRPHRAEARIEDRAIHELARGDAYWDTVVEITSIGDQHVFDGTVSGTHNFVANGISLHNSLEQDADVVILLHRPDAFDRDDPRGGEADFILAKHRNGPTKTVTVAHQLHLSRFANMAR

[2] = target: X-box-binding protein 1 (Homo sapiens, UniProt P17861); assay type: functional, Cricetulus griseus;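 note: confirmatory dose-response counter-screen serving a CHOP assay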
[3] = target: T2, Protein RecA (Mycobacterium tuberculosis, UniProt P9WHJ3); assay: Fluorescence Cell-Free Homogeneous Dose Retest to Identify Inhibitors of RecA-Intein Splicing Activity. [Related pubchem assays (depositor defined):AID2097, AID2223, AID489010, AID492950]; assay type: functional
T2 sequence (P9WHJ3 whole entry): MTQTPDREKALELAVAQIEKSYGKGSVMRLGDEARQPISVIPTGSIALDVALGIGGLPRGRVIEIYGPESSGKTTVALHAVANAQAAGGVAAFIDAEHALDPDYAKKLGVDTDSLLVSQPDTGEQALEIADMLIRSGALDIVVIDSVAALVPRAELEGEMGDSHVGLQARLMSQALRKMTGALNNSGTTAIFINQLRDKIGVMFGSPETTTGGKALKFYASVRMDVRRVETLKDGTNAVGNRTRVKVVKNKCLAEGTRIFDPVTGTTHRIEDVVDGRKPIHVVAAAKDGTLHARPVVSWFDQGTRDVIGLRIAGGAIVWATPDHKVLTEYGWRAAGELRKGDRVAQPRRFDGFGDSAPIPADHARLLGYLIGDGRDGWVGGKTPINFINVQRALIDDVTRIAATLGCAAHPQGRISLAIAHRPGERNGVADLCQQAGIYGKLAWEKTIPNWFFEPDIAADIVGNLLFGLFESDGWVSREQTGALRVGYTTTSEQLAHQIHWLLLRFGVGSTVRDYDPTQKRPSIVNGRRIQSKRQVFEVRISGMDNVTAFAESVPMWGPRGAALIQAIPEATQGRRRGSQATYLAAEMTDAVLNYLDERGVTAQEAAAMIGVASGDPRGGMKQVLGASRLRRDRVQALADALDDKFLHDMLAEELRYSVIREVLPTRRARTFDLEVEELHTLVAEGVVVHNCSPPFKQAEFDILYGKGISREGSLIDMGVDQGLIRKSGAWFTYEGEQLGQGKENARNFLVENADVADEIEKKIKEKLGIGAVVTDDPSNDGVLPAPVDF

[4] = viability of PTEN-deleted HCT116 cells – cell-based, HCT116 PTEN knockout, dose response (AID 1047); assay type: functional;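 note: HCT116 colon tumor cells with PTEN knocked out; cells exposed to compound for 60 hours before readout; potency for loss of cell viability measured by luminescence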
[5] = target: T3, Small ubiquitin-related modifier 1 (Homo sapiens, UniProt P63165); assay: SUMO1 protein-protein binding blockers, potency – biochemical, FRET, dose response (AID 624383); assay type: functional; details: read-out: IC50_Mean
[6] = target: Induced myeloid leukemia cell differentiation protein Mcl-1 (Homo sapiens, UniProt Q07820); assay type: functional
[7] = target: T4, DNA repair protein RAD52 homolog (Homo sapiens, UniProt P43351); assay type: functional, biochemical
T4 sequence (P43351 whole entry): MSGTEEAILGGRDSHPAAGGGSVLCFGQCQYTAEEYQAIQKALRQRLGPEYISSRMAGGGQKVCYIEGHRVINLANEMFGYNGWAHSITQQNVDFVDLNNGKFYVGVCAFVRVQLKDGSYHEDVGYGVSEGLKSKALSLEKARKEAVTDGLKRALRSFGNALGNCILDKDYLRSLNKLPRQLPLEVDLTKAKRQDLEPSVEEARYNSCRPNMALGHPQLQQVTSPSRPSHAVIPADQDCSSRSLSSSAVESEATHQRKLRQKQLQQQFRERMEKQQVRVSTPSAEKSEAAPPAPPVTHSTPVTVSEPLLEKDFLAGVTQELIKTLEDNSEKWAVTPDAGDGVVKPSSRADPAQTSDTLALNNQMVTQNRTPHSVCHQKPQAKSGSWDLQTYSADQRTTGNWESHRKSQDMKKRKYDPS

[8] = viability of HCT116 lacking mutant beta-catenin – cell-based, human colon tumor, dose response (AID 1045); assay type: functional;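 note: HCT116 colon tumor cells with beta catenin knocked out; cells exposed to compound for 60 hours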
[9] = target: Eukaryotic translation initiation factor 4E (Mus musculus, UniProt P63073); assay: blockers of eIF4G binding by eIF4E – biochemical, TR-FRET, dose response (AID 855); assay type: functional;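 note: potency for disrupting eIF4E binding to eIF4GI seen as loss of FRET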
[10] = target: Heat shock protein HSP 90-alpha (Homo sapiens, UniProt P07900); assay type: functional, organism-based
[11] = target: T3, Small ubiquitin-related modifier 1; assay: SUMO1 protein interaction blockers, potency – biochemical, fluorescence polarization, uHTS hits, dose response (AID 624382); assay type: functional; details: read-out: IC50_Mean
[12] = target: Intestinal-type alkaline phosphatase (Homo sapiens, UniProt P09923); assay: Dose Response confirmation of uHTS hits from a small molecule inhibitors of human intestinal alkaline phosphatase via a luminescent assay. [Related pubchem assays (depositor defined):AID2544, AID2574]; assay type: functional
[13] = target: T5, Mannose-6-phosphate isomerase (Homo sapiens, UniProt P34949); assay: MPI inhibition at elevated mannose 6-phosphate – biochemical, fluorescence intensity, high mannose 6-phosphate, primary screen (AID 1220)
T5 sequence (P34949 whole entry): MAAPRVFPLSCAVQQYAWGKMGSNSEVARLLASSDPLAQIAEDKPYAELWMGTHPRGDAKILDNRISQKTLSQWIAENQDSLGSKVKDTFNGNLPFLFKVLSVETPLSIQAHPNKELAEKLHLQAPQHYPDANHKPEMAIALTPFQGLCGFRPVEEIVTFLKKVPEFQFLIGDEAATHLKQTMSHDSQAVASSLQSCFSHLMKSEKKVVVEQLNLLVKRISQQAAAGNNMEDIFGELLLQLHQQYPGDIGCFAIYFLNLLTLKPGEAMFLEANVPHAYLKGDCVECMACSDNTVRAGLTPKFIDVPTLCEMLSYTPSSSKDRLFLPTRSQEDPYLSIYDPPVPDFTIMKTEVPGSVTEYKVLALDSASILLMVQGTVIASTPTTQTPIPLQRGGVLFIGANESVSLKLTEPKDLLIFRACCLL

[14] = target: T6, Polyadenylate-binding protein 1 (Homo sapiens, UniProt P11940); assay: MLLE domain peptide-binding blockers, IC50 – biochemical, fluorescence polarization, FITC-PAM2 peptide, dose response (AID 602259); assay type: functional; details: read-out: IC50_Mean
[15] = target: T5, Mannose-6-phosphate isomerase; assay: phosphomannose isomerase inhibition – biochemical, fluorescence intensity, confirmation (AID 1535)
[16] = system: Streptococcus sp. 'group A'; assay: Streptococcus pyogenes SK(-)GAS viability under kanamycin – luminescence, BacTiterGlo, confirmation, counter-screen for streptokinase expression inhibitor project, dose response (AID 1900); assay type: functional, organism-based
[17] = target: DNA dC->dU-editing enzyme APOBEC-3A (Homo sapiens, UniProt P31941); assay: A3A deaminase inhibition for selectivity – biochemical, dose response (AID 504722); assay type: functional
[18] = system: Streptococcus; assay: GAS UMAA2166 growth inhibition – luminescence, BacTiterGlo, counter-screen for streptokinase expression inhibitor project, dose response (AID 1915); assay type: functional, organism-based;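 note: potency for reduction of bacterial viability or growth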
[19] = target: T6, Polyadenylate-binding protein 1; assay: MLLE binding blockers, Cy5 peptide tracer – biochemical, fluorescence polarization, Cy5-PAM2 peptide, secondary, miRNA deadenylation inhibitor project, dose response (AID 602260); assay type: functional; details: read-out: IC50_Mean
[20] = target: DNA dC->dU-editing enzyme APOBEC-3G (Homo sapiens, UniProt Q9HC16); assay: Dose Response confirmation of small molecule APOBEC3G DNA Deaminase Inhibitors via a fluorescence-based single-stranded DNA deaminase assay. [Related pubchem assays (depositor defined):AID493012, AID493028]; assay type: functional
[21] = target: Glucose-6-phosphate 1-dehydrogenase (Homo sapiens, UniProt P11413); assay: inhibition of Homo sapiens G6PD, dose series – biochemical, fluorescence, selectivity assay for P. falciparum G6PD inhibitor project, dose response (AID 504792); assay type: functional
[22] = target: Large T antigen (Simian virus 40, UniProt P03070); assay type: functional, Betapolyomavirus macacae;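 note: Confirmatory-stage PubChem screen for compounds that inhibit SV40 T antigen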
[23] = target: T7, Phosphomannomutase 2 (Homo sapiens, UniProt O15305); assay: Counter screen SAR assay for PMM2 inhibitors via a fluorescence intensity assay. [Related pubchem assays (depositor defined):AID1545, AID1574]
T7 sequence (O15305 whole entry): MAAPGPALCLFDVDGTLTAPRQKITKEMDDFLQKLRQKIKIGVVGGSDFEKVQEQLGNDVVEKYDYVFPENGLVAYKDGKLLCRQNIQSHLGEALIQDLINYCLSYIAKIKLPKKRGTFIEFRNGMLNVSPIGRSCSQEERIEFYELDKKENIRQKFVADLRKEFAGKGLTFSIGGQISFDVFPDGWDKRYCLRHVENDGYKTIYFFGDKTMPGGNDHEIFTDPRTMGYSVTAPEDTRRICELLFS

[24] = target: T5, Mannose-6-phosphate isomerase; assay: MPI enzyme activity inhibition – biochemical, fluorescence intensity, coupled assay, primary screen (AID 1209)
[25] = target: T8, Streptokinase A (Streptococcus pyogenes serotype M1, UniProt P10520); assay: viability-normalized secreted streptokinase activity reduction – plasminogen activation absorbance, OD405, dose response (AID 1914); assay type: functional, Streptococcus pyogenes M1 GAS;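 note: secreted streptokinase activity via plasminogen activation per viability signal from cell pellet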
T8 sequence (P10520 whole entry): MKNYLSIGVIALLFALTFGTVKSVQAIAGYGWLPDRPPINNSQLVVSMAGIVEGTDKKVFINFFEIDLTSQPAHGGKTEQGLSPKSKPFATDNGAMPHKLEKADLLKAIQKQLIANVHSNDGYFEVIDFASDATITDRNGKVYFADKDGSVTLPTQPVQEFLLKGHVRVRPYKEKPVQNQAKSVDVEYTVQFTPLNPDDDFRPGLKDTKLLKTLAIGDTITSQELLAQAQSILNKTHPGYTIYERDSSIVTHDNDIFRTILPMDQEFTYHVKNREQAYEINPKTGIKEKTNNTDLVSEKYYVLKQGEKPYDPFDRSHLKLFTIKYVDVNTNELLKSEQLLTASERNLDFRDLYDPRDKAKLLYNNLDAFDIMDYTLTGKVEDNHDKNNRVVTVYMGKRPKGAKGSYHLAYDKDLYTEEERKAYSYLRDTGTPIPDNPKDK

[26] = target: Phosphoethanolamine/phosphocholine phosphatase (Homo sapiens, UniProt Q8TCT1); assay: SAR assay for compounds that inhibit PHOSPHO1. [Related pubchem assays (depositor defined):AID1545, AID1565, AID1574]
Chain of Phosphoethanolamine/phosphocholine phosphatase (Q8TCT1 whole entry): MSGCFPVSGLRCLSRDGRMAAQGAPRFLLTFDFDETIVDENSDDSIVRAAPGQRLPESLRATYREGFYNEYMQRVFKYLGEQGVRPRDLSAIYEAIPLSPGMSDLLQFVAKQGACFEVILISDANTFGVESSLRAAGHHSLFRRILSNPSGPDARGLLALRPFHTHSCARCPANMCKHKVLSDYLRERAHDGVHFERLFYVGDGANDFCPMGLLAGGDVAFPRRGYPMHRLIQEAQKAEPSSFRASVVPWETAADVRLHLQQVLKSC

T3 sequence (P63165 whole entry): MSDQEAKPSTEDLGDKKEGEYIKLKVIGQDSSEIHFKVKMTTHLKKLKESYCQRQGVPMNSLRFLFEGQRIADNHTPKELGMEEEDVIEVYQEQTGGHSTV
T6 sequence (P11940 whole entry, the tested form may be a part): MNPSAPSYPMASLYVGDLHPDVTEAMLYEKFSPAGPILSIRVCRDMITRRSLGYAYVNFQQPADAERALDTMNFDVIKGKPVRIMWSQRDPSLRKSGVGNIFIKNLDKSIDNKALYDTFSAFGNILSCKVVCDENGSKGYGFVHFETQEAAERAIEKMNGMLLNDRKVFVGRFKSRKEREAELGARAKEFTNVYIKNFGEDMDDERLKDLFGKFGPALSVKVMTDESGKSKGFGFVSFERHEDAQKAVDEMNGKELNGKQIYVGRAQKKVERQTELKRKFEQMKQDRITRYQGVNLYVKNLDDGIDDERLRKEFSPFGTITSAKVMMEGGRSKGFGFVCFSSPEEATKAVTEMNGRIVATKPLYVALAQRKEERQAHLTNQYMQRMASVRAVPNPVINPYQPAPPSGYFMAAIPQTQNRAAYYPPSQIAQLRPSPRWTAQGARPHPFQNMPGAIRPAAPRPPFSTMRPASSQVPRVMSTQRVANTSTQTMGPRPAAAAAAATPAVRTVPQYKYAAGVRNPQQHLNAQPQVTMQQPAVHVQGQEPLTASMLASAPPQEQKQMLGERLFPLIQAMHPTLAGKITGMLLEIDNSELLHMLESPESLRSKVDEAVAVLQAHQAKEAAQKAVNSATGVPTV
Chain of Intestinal-type alkaline phosphatase (P09923 whole entry): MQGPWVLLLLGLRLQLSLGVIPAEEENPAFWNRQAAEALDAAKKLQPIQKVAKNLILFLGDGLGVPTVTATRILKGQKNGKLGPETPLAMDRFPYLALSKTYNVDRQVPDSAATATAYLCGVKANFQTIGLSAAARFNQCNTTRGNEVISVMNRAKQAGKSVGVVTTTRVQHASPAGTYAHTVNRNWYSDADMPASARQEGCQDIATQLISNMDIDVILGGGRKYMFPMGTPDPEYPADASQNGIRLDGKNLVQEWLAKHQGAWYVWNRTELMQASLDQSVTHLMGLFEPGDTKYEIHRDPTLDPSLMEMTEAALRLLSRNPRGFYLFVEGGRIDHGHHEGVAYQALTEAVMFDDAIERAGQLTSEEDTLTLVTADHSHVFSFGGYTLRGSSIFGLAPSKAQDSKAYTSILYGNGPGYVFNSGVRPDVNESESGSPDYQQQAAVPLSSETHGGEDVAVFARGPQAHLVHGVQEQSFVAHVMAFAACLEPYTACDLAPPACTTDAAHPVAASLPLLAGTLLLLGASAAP
Chain of Eukaryotic translation initiation factor 4E (P63073 whole entry): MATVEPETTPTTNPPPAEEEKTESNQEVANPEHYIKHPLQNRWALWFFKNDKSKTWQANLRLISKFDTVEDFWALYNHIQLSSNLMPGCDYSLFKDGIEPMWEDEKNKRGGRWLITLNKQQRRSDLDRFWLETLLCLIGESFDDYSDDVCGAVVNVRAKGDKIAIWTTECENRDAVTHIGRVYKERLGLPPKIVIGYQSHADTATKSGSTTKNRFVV
Chain of X-box-binding protein 1 (P17861 whole entry): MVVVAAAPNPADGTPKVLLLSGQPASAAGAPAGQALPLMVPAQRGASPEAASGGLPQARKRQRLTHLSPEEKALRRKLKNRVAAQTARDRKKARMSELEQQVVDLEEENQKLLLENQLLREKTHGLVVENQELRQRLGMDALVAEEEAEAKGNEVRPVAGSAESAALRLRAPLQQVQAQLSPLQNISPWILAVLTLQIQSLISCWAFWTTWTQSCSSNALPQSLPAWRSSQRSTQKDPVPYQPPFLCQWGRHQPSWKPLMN
Chain of Large T antigen (P03070 whole entry): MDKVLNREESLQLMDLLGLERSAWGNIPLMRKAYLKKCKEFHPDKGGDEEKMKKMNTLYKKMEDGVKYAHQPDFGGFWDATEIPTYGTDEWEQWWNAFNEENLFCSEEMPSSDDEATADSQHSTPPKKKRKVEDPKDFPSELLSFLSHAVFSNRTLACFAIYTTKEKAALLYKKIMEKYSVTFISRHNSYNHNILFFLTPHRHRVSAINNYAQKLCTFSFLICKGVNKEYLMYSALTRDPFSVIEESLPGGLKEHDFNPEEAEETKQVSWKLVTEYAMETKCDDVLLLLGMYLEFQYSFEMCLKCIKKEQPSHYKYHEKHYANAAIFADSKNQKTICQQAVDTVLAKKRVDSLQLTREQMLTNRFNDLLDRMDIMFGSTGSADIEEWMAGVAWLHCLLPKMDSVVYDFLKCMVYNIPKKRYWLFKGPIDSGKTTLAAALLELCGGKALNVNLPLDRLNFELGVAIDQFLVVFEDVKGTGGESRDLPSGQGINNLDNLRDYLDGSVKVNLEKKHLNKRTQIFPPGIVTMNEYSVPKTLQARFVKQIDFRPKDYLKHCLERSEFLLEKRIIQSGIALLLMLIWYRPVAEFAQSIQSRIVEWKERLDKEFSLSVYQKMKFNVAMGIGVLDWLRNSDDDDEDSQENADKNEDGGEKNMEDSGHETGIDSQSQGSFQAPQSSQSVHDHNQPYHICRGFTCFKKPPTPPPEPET
Chain of Induced myeloid leukemia cell differentiation protein Mcl-1 (Q07820 whole entry): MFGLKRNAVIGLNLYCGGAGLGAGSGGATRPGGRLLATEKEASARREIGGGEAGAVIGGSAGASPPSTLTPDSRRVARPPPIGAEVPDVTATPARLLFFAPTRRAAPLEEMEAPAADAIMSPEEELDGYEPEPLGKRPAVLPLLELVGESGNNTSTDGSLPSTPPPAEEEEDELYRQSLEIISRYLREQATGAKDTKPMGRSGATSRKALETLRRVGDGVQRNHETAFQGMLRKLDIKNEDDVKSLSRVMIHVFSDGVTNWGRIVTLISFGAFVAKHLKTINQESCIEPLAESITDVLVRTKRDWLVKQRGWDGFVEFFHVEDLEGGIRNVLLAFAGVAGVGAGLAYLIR
Chain of DNA dC->dU-editing enzyme APOBEC-3G (Q9HC16 whole entry): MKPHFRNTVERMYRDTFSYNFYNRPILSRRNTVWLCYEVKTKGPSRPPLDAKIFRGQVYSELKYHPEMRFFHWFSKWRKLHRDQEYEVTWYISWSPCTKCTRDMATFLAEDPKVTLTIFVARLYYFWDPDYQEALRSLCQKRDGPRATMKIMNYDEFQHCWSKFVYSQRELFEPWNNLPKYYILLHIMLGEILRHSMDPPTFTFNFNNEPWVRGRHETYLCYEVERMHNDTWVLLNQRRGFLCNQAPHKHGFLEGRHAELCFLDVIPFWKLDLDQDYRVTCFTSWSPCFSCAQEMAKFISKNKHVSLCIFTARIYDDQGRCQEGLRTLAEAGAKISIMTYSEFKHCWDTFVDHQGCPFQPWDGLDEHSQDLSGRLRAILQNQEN
Chain of Glucose-6-phosphate 1-dehydrogenase (P11413 whole entry): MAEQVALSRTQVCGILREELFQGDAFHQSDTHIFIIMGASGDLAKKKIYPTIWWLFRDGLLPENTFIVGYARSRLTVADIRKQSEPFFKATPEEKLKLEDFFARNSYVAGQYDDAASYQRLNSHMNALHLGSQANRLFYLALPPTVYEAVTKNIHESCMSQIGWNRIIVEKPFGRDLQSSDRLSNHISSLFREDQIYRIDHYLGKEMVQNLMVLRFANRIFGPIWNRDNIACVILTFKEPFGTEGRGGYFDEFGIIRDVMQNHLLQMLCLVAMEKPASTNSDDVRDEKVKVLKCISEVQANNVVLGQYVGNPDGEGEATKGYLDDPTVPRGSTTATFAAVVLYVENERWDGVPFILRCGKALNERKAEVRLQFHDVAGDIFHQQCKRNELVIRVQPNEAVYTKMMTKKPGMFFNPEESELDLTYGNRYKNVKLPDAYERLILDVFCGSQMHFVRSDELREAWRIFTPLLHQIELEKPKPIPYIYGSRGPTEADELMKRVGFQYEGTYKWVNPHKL
Chain of DNA dC->dU-editing enzyme APOBEC-3A (P31941 whole entry): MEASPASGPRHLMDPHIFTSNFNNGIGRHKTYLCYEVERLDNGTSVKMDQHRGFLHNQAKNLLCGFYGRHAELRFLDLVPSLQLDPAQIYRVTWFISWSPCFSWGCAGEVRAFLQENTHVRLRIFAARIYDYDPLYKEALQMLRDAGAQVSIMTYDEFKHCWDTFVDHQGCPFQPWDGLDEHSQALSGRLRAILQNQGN

In the case of CC1=NN(c2ccccc2)C(=O)/C1=C/c1cc2ccccc2[nH]1, the AC50 [1] is reported as 19.2 µM (active), the “Absolute IC50 (XBP1)” value [2] is reported as 10 µM and the EC50 [3] is reported as 10.9 µM (active).
For CCCCCCCCCCCCCCCC[n+]1cccc2ccccc21, the EC50 [4] was 0.295 µM (active), the IC50 [5] was 8.86 µM (active) and the IC50 [6] was 4.32 µM (active). The AC50 [7] was 3.67 µM (active), the EC50 [8] was 0.17 µM (active) and the IC50 [9] was 5.71 µM (active). For the same compound, the AC50 [10] was 2.87 µM (active) and the IC50 [11] was > 66.6 µM (inactive).
With Cc1cc(NC(=O)c2ccc(N3C(=O)C4C5C=CC(C5)C4C3=O)cc2)no1 (configuration not stated) the IC50 [12] was > 100 µM (inactive).
For O=C(Cn1sc2ccccc2c1=O)NC12CC3CC(CC(C3)C1)C2, the IC50 [13] was > 50 µM (not active), the IC50 [14] was > 66 µM (inactive) and the EC50 [4] was 30.2 µM (active). For the same compound, the IC50 [15] was > 50 µM (inactive), the EC50 [16] was 0.637 µM (active) and the IC50 [17] was > 100 µM (inactive). The EC50 [18] was 7.2 µM (active), the IC50 [19] was > 66 µM (inactive) and the IC50 [20] was 6.94 µM (active). The IC50 [21] was 13.5 µM (active), the IC50 [22] was 14 µM (active) and the IC50 [23] was > 100 µM (inactive). For the same compound, the EC50 [8] was 22.4 µM (active), the IC50 [9] was > 64 µM (inactive) and the IC50 [24] was > 50 µM (not active). For the same compound, the EC50 [25] was > 150 µM (not active).
For O=C(CSc1nc(-c2cccs2)cc(C(F)(F)F)n1)NCc1ccccc1, the IC50 [12] was > 100 µM (inactive).
In the case of O=c1c2ccc(F)cc2sn1-c1cc(Cl)cc(Cl)c1, the IC50 [15] is reported as > 50 µM (inactive), the IC50 [23] is reported as > 100 µM (inactive) and the IC50 [26] is reported as > 100 µM (inactive).
